This is an account of results in ChEMBL document CHEMBL1147438, “Discovery of novel aspartyl ketone dipeptides as potent and selective caspase-3 inhibitors” (Bioorg Med Chem Lett, 2004).

Bounds are passed on as bounds.

Assay [1] concerns the target T1, Caspase-7 (Homo sapiens, UniProt P55210).
T1 sequence (P55210 whole entry): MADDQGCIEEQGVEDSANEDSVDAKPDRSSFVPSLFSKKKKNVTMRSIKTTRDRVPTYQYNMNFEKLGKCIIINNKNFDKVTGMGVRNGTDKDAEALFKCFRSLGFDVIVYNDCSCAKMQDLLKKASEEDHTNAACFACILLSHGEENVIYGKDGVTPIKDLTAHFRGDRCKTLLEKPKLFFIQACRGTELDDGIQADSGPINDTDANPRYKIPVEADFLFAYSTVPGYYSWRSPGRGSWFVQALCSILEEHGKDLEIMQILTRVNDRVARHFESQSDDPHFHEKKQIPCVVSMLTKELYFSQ
Description: Inhibitory activity against caspase-7.

Assay [2] deals with T2, Caspase-1 (Homo sapiens, UniProt P29466).
T2 sequence (P29466 whole entry): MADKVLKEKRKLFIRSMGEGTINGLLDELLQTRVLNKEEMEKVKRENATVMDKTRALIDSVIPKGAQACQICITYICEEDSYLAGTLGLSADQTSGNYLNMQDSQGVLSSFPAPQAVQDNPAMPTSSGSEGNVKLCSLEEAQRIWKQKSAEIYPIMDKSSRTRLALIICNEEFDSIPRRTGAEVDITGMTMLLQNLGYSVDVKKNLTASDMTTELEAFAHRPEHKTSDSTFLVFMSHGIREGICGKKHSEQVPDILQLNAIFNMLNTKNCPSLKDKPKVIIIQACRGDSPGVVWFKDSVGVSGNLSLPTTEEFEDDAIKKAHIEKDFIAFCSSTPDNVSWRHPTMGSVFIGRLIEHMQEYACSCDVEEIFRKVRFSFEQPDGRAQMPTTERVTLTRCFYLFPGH
Description: Inhibitory activity against caspase-1.

Assay [3] addresses Caspase-8 (Homo sapiens, UniProt Q14790). Kind of assay: Inhibitory activity against caspase-8.
Assay [4] has as its target T3, Caspase-3 (Homo sapiens, UniProt P42574).
T3 sequence (P42574 whole entry): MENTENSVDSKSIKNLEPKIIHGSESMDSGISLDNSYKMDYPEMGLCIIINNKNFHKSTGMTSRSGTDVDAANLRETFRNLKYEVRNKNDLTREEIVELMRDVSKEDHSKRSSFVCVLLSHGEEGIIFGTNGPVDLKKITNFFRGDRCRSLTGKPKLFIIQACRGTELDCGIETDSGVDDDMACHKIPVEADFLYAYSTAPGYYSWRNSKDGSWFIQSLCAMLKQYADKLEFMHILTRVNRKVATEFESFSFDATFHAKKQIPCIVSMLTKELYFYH
Kind of assay: Inhibitory activity against caspase-3.

In assay [5] the test system is NT2. Description: Inhibitory activity against NT2 cells. Conditions: Homo sapiens. It is filed as functional, cell-based.

Caspase-8, sequence (Q14790 217-374 limits assumed): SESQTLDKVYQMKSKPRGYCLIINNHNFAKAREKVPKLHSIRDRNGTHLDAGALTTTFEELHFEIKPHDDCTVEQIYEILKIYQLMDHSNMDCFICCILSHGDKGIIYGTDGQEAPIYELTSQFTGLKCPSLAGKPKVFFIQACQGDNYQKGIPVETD
Caspase-8, sequence (Q14790 385-479 limits assumed): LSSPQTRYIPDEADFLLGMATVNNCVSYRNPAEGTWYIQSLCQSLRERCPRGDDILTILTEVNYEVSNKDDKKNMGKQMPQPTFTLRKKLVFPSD

The term IC50 denotes the concentration that inhibits the measured activity by half. A low value points to greater potency. For the molecule `COc1ccccc1CC(=O)N[C@H](C(=O)N[C@@H](CC(=O)O)C(=O)CSCc1ccccc1)C(C)C`, the concentration for half-maximal inhibition (IC50) in assay [1] amounted to 2700 nM; in assay [2] it was 28000 nM; in assay [3], 15500 nM; in assay [4] it was 310 nM.
Turning to `COc1ccc(OC)c(CC(=O)N[C@H](C(=O)N[C@@H](CC(=O)O)C(=O)CSCc2ccccc2)C(C)C)c1`, the 50% inhibitory concentration (IC50) in assay [1] came out at 3200 nM; in assay [2], 6000 nM; in assay [3], 6600 nM; in assay [4], 48 nM; in assay [5], 10000 nM.
For `COc1ccc(S(C)(=O)=O)cc1CC(=O)N[C@H](C(=O)N[C@@H](CC(=O)O)C(=O)CSCc1c(F)cccc1Cl)C(C)C`, the concentration for half-maximal inhibition (IC50) in assay [1] worked out at 120 nM; in assay [2], 1600 nM; in assay [3], 490 nM; in assay [4], 5 nM; in assay [5], 1000 nM.
The corresponding values for `CC(C)[C@H](NC(=O)c1cc(Br)cc(Br)c1)C(=O)N[C@@H](CC(=O)O)C(=O)CSCc1ccccc1` are 1500 nM, 860 nM, 8700 nM, 140 nM and 63000 nM.
On to `COc1ccc(C(C)=O)cc1CC(=O)N[C@H](C(=O)N[C@@H](CC(=O)O)C(=O)CSCc1ccccc1)C(C)C`, for which the 50% inhibitory concentration (IC50) was 130 nM in assay [1]; 5900 nM in assay [2]; 2900 nM in assay [3]; 10 nM in assay [4]; 2000 nM in assay [5].
As for `COc1ccc(OC)c(CC(=O)N[C@H](C(=O)N[C@@H](CC(=O)O)C(=O)CSCc2c(F)cccc2Cl)C(C)C)c1`, the half-inhibitory concentration (IC50) in assay [1] was 2500 nM; in assay [2], 5000 nM; in assay [3], 2400 nM; in assay [4], 73 nM; in assay [5], 9000 nM.
On the same counts, the results for `CCOc1ccc(OCC(=O)O)cc1CC(=O)N[C@H](C(=O)N[C@@H](CC(=O)O)C(=O)CSCc1c(F)cccc1Cl)C(C)C` are 360 nM, 3800 nM, 810 nM, 5 nM and 5000 nM.
The corresponding values for `CCOc1ccc(OCC(=O)OC(C)C)cc1CC(=O)N[C@H](C(=O)N[C@@H](CC(=O)O)C(=O)CSCc1c(F)cccc1Cl)C(C)C` are 2300 nM, 4200 nM, 6300 nM, 94 nM and 300 nM.
On the same counts, the results for `CC(C)[C@H](NC(=O)c1cc2cc(F)ccc2[nH]1)C(=O)N[C@@H](CC(=O)O)C(=O)CSCc1ccccc1` are 1400 nM, 2600 nM, 3300 nM, 83 nM and 55000 nM.
Turning to `COc1cccc(CC(=O)N[C@H](C(=O)N[C@@H](CC(=O)O)C(=O)CSCc2ccccc2)C(C)C)c1`, the half-maximal inhibitory concentration (IC50) in assay [1] turned out to be 3100 nM; in assay [2], 14000 nM; in assay [3], 14000 nM; in assay [4], 210 nM; in assay [5] it was 60000 nM.
`CC(C)[C@H](NC(=O)[C@H](C)NC(=O)[C@H](CC(=O)O)NC(=O)c1ccccc1)C(=O)N[C@@H](CC(=O)O)C(=O)CCCc1ccccc1`: the half-inhibitory concentration (IC50) was found to be 8.4 nM in assay [1]; 1650 nM in assay [2]; 1500 nM in assay [3]; 1.8 nM in assay [4]; 14000 nM in assay [5].
Take `CCOc1ccc(OCC(=O)OC)cc1CC(=O)N[C@H](C(=O)N[C@@H](CC(=O)O)C(=O)CSCc1c(F)cccc1Cl)C(C)C`: the IC50 in assay [1] is 1700 nM; in assay [2] it was 6500 nM; in assay [3] it was 9300 nM; in assay [4], 53 nM; in assay [5] it was 700 nM.
For `COc1ccc(OC)c(CC(=O)N[C@H](C(=O)N[C@@H](CC(=O)O)C(=O)CSCC2CCCCC2)C(C)C)c1`, the IC50 was more than 10000 nM in assay [1]; 1800 nM in assay [2]; 2000 nM in assay [3]; 63 nM in assay [4]; 19000 nM in assay [5].
On to `CC(C)[C@H](NC(=O)Cc1ccccc1)C(=O)N[C@@H](CC(=O)O)C(=O)CSCc1ccccc1`, for which the concentration for half-maximal inhibition (IC50) in assay [1] was determined as 8400 nM; in assay [2], 22000 nM; in assay [3] it was 22500 nM; in assay [4], 750 nM.
Regarding `COc1ccc(OC)c(CC(=O)N[C@H](C(=O)N[C@@H](CC(=O)O)C(=O)CSCC(C)C)C(C)C)c1`, the IC50 in assay [1] worked out at 1800 nM; in assay [2], 2600 nM; in assay [3], 7800 nM; in assay [4], 130 nM; in assay [5], 32000 nM.
Regarding `CC(=O)N[C@@H](CC(=O)O)C(=O)N[C@@H](CCC(=O)O)C(=O)N[C@H](C(=O)N[C@H](C=O)CC(=O)O)C(C)C`, the half-inhibitory concentration (IC50) in assay [1] was 87 nM; in assay [2] it was 190 nM; in assay [3] it was 130 nM; in assay [5], more than 100000 nM.
As to `CCOc1ccc(/C=C/C(=O)OC)cc1CC(=O)N[C@H](C(=O)N[C@@H](CC(=O)O)C(=O)CSCc1c(F)cccc1Cl)C(C)C`, the IC50 in assay [1] is 24 nM; in assay [2], 1800 nM; in assay [3] it was 3850 nM; in assay [5], 600 nM.
Consider `COc1ccc(Br)cc1CC(=O)N[C@H](C(=O)N[C@@H](CC(=O)O)C(=O)CSCc1ccccc1)C(C)C`, for which the IC50 was determined as 3100 nM in assay [1]; 3100 nM in assay [2]; 2300 nM in assay [3]; 60 nM in assay [4]; 9000 nM in assay [5].
